Reference: publication PMC3914206

Assays:
Type in all cases: binding
Details in all cases: Compound Concentration 10 µM
panel of 442 kinases [1] = molecular target: T1, panel of 442 kinases (Homo sapiens, UniProt Q8WTQ7)
T1 construct: purchased KINOMEscan
T1 sequence (Q8WTQ7 1-553): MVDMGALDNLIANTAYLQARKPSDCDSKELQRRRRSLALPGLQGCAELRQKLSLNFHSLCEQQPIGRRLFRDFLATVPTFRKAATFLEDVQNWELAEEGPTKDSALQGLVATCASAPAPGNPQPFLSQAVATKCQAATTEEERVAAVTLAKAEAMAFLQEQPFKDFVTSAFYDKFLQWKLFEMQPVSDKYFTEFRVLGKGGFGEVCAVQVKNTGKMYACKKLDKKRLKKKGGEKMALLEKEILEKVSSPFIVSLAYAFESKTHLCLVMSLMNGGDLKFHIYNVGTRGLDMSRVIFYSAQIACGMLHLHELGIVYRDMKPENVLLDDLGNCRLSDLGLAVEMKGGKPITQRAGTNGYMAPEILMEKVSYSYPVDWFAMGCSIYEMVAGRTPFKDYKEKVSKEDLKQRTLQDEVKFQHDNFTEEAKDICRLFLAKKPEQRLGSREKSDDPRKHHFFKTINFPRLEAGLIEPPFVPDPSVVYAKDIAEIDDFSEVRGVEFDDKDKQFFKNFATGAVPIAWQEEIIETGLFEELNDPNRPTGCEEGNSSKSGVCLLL
Description: (§1) We assessed the selectivity of members of this scaffold using the KINOMEscan methodology across a near comprehensive panel of 442 kinases [[18,27]].

panel of 442 kinases [2] = molecular target: T2, panel of 442 kinases (Homo sapiens, UniProt P00533, T790M)
T2 construct: purchased KINOMEscan
T2 sequence (P00533 25-1210 T790M): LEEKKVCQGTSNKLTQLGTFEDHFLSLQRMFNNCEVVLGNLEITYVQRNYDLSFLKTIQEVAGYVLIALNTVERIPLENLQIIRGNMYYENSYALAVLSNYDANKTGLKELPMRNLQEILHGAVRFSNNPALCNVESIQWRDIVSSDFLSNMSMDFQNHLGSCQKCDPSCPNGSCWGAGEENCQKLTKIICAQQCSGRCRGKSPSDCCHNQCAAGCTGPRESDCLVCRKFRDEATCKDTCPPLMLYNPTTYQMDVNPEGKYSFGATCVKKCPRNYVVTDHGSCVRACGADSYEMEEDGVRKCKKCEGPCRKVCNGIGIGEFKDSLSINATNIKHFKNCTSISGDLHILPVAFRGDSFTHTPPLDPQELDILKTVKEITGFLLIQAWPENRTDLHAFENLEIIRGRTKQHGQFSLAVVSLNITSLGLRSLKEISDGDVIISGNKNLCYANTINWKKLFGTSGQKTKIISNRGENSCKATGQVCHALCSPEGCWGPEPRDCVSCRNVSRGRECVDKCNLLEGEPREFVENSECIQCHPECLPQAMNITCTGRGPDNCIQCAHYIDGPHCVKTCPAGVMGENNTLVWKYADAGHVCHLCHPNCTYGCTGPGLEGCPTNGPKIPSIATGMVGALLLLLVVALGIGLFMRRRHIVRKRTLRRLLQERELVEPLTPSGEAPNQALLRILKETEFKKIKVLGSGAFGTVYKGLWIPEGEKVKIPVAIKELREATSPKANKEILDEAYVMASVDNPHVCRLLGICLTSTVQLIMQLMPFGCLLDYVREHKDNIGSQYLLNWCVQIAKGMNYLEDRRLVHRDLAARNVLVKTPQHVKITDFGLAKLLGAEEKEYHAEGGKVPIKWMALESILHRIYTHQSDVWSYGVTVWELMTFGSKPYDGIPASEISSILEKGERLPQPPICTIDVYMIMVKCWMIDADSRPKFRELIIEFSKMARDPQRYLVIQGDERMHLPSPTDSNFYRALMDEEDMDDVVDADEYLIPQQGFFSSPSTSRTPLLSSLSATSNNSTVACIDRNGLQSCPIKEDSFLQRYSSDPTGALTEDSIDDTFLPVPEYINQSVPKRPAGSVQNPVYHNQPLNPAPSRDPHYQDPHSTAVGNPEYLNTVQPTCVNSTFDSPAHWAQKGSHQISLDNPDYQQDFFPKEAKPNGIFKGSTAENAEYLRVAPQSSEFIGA
Description: as §1

panel of 442 kinases [3] = molecular target: T3, panel of 442 kinases (Homo sapiens, UniProt P29317)
T3 construct: purchased KINOMEscan
T3 sequence (P29317 24-976): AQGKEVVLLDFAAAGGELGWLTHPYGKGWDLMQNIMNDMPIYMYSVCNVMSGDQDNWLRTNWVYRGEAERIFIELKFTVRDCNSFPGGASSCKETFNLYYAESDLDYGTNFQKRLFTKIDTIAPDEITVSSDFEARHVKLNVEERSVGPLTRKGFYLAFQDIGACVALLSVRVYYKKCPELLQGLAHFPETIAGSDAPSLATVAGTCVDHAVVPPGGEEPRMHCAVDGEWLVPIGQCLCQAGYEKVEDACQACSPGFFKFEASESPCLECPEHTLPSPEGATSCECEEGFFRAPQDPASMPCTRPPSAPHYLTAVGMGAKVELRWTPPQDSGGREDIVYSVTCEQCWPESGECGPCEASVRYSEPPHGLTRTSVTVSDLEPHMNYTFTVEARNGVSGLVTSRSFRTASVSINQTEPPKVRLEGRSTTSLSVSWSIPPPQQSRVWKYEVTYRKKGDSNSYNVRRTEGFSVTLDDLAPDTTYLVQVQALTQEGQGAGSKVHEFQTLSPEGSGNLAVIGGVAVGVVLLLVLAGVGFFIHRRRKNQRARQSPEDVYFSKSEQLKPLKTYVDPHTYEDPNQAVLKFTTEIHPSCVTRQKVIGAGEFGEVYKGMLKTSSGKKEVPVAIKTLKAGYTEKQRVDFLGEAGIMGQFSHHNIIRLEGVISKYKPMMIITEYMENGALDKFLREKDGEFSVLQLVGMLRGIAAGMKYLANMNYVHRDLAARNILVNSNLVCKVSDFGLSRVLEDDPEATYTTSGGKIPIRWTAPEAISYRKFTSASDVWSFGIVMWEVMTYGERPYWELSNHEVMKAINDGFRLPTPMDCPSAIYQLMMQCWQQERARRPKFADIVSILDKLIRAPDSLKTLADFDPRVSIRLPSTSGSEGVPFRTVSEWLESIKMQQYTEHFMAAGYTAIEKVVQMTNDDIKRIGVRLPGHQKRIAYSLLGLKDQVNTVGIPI
Description: as §1

SMILES: COc1cc(C(=O)N2CCC(N3CCN(C)CC3)CC2)ccc1Nc1ncc2c(n1)N(C)c1ccccc1C(=O)N2C [15 (LRRK2-IN-1)]
- KINOMEscan: GRK7 (panel of 442 kinases [1]): 100
- KINOMEscan: EGFR(T790M) (panel of 442 kinases [2]): 88
- KINOMEscan: EPHA2 (panel of 442 kinases [3]): 92

SMILES: COc1cc(C(=O)N2CCC(N3CCN(C)CC3)CC2)ccc1Nc1ncc2c(n1)N1CCc3cccc(c31)C(=O)N2C [Compound 24]
- KINOMEscan: EGFR(T790M) (panel of 442 kinases [2]): 76
- KINOMEscan: EPHA2 (panel of 442 kinases [3]): 95

SMILES: COc1cc(C(=O)N2CCC(N3CCN(C)CC3)CC2)ccc1Nc1ncc2c(n1)N(C1CCCC1)c1ccccc1C(=O)N2C [Compound 25, 11-cyclopentyl-2-((2-methoxy-4-(4-(4-methylpiperazin-1-yl)piperidine-1-carbonyl)phenyl)amino)-5-methyl-5H-benzo[e]pyrimido[5,4-b][1,4]diazepin-6(11H)-one]
- KINOMEscan: GRK7 (panel of 442 kinases [1]): 94
- KINOMEscan: EGFR(T790M) (panel of 442 kinases [2]): 89
- KINOMEscan: EPHA2 (panel of 442 kinases [3]): 100

SMILES: CCOc1cc(C(=O)N2CCC(N3CCN(C)CC3)CC2)ccc1Nc1ncc2c(n1)N(C1CCCC1)c1ccccc1C(=O)N2C [Compound 26]
- KINOMEscan: GRK7 (panel of 442 kinases [1]): 100
- KINOMEscan: EGFR(T790M) (panel of 442 kinases [2]): 100
- KINOMEscan: EPHA2 (panel of 442 kinases [3]): 100
